Laboratory results taken from patent US20260133203A1, “DETECTION OF FUMARATE-DERIVED MODIFICATION IN A TEST SAMPLE” (UNIVERSITY OF SOUTH CAROLINA, priority 2017, published 2026).
Counter-ions that a name gives are not always drawn.

Tested on: primary rat astrocytes
Test: LC-MS/MS identification of succinated proteins in primary rat astrocytes
Type: cell-based
Settings: 24 hours treatment with up to 100 μM DMF
Method: Primary astrocytes were isolated and cultured from neonatal P1-P2 Sprague-Dawley rats. Animals were decapitated following which cortices, brainstem, and hippocampi were aseptically dissected in petri dishes filled with ice-cold Hanks' Balanced Salt Solution (Corning® HBSS; Sigma, St. Louis, MO), HEPES (10 mM; Sigma), and gentamicin sulfate (5 μg/mL; Life Technologies, Carlsbad, CA). The dissected tissue was cut into pieces and dissociated by trypsin treatment (10 μl/mL; Life Technologies, Carlsbad, CA), followed by trituration with sterile glass pipettes. Cells were plated in 24-well plates pre-coated with poly-l-lysine (50 μg/mL; Sigma). Cultures were maintained in DMEM/F12 (Life Technologies) medium supplemented with 10% fetal bovine serum (FBS) and stored in an incubator at 37° C. ([…]). […] After gel extraction, the peptides were re-suspended in 1% acetic acid and analyzed on a DionexTM […] system (Thermo ScientificTM, Rockford, IL) coupled to an Orbitrap Velos ProTM mass spectrometer (Thermo ScientificTM, Rockford, IL). […] The data-dependent acquisition (DDA) data were analyzed using Proteome DiscovererTM 1.4 software with SEQUEST search engine against the uniprot_ref_mouse database (2014-10-03 version, 52,474 proteins) or uniprot_ref_rat database (2011-5-11 version, 39765 proteins) with Xcorr>1 validation (+2) and an allowance for 2 missed cleavages. […]

In the case of `COC(=O)/C=C/C(=O)OC` [DMF, dimethyl fumarate], the “number of succinated protein subunits detected” value is reported as 11.
